What all share (test): Bliss excess, mean over the matrix (fraction); higher = more synergy
For assay [1], the system named is CAL-54 (Kidney Carcinoma). The method in brief: (§1)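 Cell lines in DMEM/F12 or RPMI with 10% FBS were plated in 1536-well plates, held 24 hours at 37°C, 5% CO2, then given two-drug dose matrices for 72 hours (DMSO typically 0.2%). Viability was read by CellTiter-Glo 2.0 luminescence and scaled as inhibition from 0 (vehicle wells) to 1 (blank wells). Combination Emax is the second-highest inhibition in the matrix; Bliss excess is observed combination effect minus expected EA + EB − EA·EB, EA and EB being single-agent effects.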

Assay [2] has as its system CAPAN-1 (Pancreatic Carcinoma). The method, boiled down: as §1
The subject of assay [3] is EN (Endometrial Carcinoma). The method, boiled down: as §1
In assay [4] the test system is HARA (Squamous Cell Lung Carcinoma). The method in brief:
as §1

The test system of assay [5] is HDLM-2 (Hodgkin's Lymphoma). The method, boiled down: as §1
Assay [6] deals with HO-1-u-1 (Oral Cavity Carcinoma). The method in brief:
as §1

In assay [7] the test system is Hs-633T (Other Solid Carcinomas). The method in brief:
as §1

Assay [8] has as its system LoVo (Colorectal Carcinoma). The method, boiled down: as §1
Assay [9] relates to MDA-MB-468 (Breast Carcinoma). The method in brief:
as §1

The next assay deals with NB14 (Neuroblastoma). The method in brief:
as §1

A further assay has as its system NCI-H2461 (Mesothelioma). The method, boiled down: as §1
The next assay deals with NCI-H28 (Mesothelioma). The method, boiled down:
as §1

Assay [10] concerns OC-314 (Ovarian Carcinoma). The method in brief:
as §1

For assay [11], the system named is PCI-30 (Head and Neck Carcinoma). The method in brief: as §1
Assay [12] relates to RKO (Colorectal Carcinoma). The method in brief: as §1
In assay [13] the test system is RPMI-6666 (Non-Cancerous). The method in brief:
as §1

The next assay deals with SH-4 (Melanoma). The method, boiled down:
as §1

The test system of assay [14] is SK-OV-3 (Ovarian Carcinoma). The method in brief: as §1
For assay [15], the system named is SU-DHL-6 (B-Cell Non-Hodgkin's Lymphoma). The method, boiled down:
as §1

Assay [16] relates to SW1116 (Colorectal Carcinoma). The method, boiled down:
as §1

`C[C@@H]1COCCN1c1cc(C2([S@](C)(=N)=O)CC2)nc(-c2ccnc3[nH]ccc23)n1` [AZD6738] + C1CC(C1)(C(=O)[O-])C(=O)[O-].N.N.[Pt+2] [Carboplatin] (first compound max 10 µM, 7x7, partner max 10 µM): the Bliss excess in assay [1] was -0.0355; in assay [2] it was -0.0624; in [3], -0.0335; in [4], -0.0226; in assay [5], 0.0001; in assay [6], -0.074. Besides, the Bliss excess in assay [7] is -0.0264; in assay [8], -0.0743; in [9], -0.0511; in the assay on NB14 (Neuroblastoma) it was -0.0044; with NCI-H2461 (Mesothelioma) it was -0.05; in the assay with NCI-H28 (Mesothelioma) it was -0.0606. Besides, the Bliss excess is -0.03 in assay [10]; -0.0362 in assay [11]; -0.0594 in assay [12]; -0.0614 in [13]; -0.057 with SH-4 (Melanoma); -0.0788 in assay [14]. Further, the Bliss excess is -0.0174 in [15] and -0.0483 in assay [16].

For `N#Cc1cnc(Nc2cc(NC[C@H]3CNCCO3)c(C(F)(F)F)cn2)cn1` [SRA737] + O=c1[nH]cc(F)c(=O)[nH]1 [5-Fluorouracil] (first compound max 10 µM, 7x7, partner max 20 µM), the Bliss excess in [1] is -0.0373; in [2], 0.0479; in [3], -0.0338; in assay [4] it was -0.0379; in assay [5] it was 0.0758; in [6], -0.0774. In addition, the Bliss excess in [7] is -0.0246; in assay [8] it was 0.0238; in assay [9] it was -0.0199; in the assay on NB14 (Neuroblastoma), 0.0321; with NCI-H2461 (Mesothelioma), -0.0256; with NCI-H28 (Mesothelioma) it was -0.0043. The Bliss excess is 0.114 in assay [10]; 0.0058 in [11]; 0.0048 in [12]; -0.003 in [13]; -0.0344 in the assay with SH-4 (Melanoma); -0.0597 in assay [14]. Besides, the Bliss excess in assay [15] was 0.0498; in [16], -0.033.

`CN(CCO)CC[C@H](CSc1ccccc1)Nc1ccc(S(=O)(=O)NC(=O)c2ccc(N3CCC([C@@H](O)c4ccccc4-c4ccc(Cl)cc4)CC3)cc2)cc1S(=O)(=O)C(F)(F)F` [AZD4320] + CC(=O)O[C@H]1C(=O)[C@@]2(C)[C@H]([C@H](OC(=O)c3ccccc3)[C@]3(O)C[C@H](OC(=O)[C@H](O)[C@@H](NC(=O)c4ccccc4)c4ccccc4)C(C)=C1C3(C)C)[C@]1(OC(C)=O)CO[C@@H]1C[C@@H]2O [Paclitaxel] (first compound max 1 µM, 7x7, partner max 3 µM): the Bliss excess in [1] was -0.0202; in assay [2] it was 0.0823; in assay [3], 0.068; in assay [4], 0.0253; in [5] it was 0.0159; in [6], 0.254. For the same molecule, the Bliss excess was 0.0124 in assay [7]; -0.0406 in assay [8]; 0.0898 in assay [9]; 0.0064 in the assay with NB14 (Neuroblastoma); 0.0571 in the assay with NCI-H2461 (Mesothelioma); 0.0394 in the assay on NCI-H28 (Mesothelioma). Further, the Bliss excess in [10] amounted to 0.0084; in assay [11], 0.177; in [12], 0.0012; in assay [13] it was 0.017; with SH-4 (Melanoma), 0.0813; in assay [14], 0.254. Also, the Bliss excess in [15] is 0.0083; in [16] it was -0.101.

Turning to `CC1(C)CCC(CN2CCN(c3ccc(C(=O)NS(=O)(=O)c4ccc(NCC5CCOCC5)c([N+](=O)[O-])c4)c(Oc4cnc5[nH]ccc5c4)c3)CC2)=C(c2ccc(Cl)cc2)C1` [Venetoclax] + CS(=O)(=O)CCNCc1ccc(-c2ccc3ncnc(Nc4ccc(OCc5cccc(F)c5)c(Cl)c4)c3c2)o1 [Lapatinib] (first compound max 1 µM, 7x7, partner max 10 µM), the Bliss excess in assay [1] is -0.0788; in assay [2], -0.0262; in [3], -0.0492; in assay [4] it was -0.02; in [5], 0.0315; in assay [6], 0.0094. For the same molecule, the Bliss excess in assay [7] is -0.0041; in assay [8] it was -0.0768; in assay [9], -0.141; in the assay on NB14 (Neuroblastoma), 0.0606; in the assay with NCI-H2461 (Mesothelioma) it was -0.04; in the assay on NCI-H28 (Mesothelioma), -0.0426. Moreover, the Bliss excess in [10] is 0.0051; in assay [11], -0.0457; in assay [12], -0.0366; in [13], 0.0423; in the assay with SH-4 (Melanoma), -0.0489; in [14] it was -0.0032. Besides, the Bliss excess in assay [15] is 0.0481; in assay [16], -0.0129.

For `CN(CCO)CC[C@H](CSc1ccccc1)Nc1ccc(S(=O)(=O)NC(=O)c2ccc(N3CCC([C@@H](O)c4ccccc4-c4ccc(Cl)cc4)CC3)cc2)cc1S(=O)(=O)C(F)(F)F` [AZD4320] + CS(=O)(=O)CCNCc1ccc(-c2ccc3ncnc(Nc4ccc(OCc5cccc(F)c5)c(Cl)c4)c3c2)o1 [Lapatinib] (first compound max 1 µM, 7x7, partner max 10 µM), the Bliss excess in assay [1] was 0.0171; in assay [2], -0.021; in [3], -0.0532; in assay [4] it was 0.027; in [5], -0.0018; in [6], 0.0591. In addition, the Bliss excess in [7] was -0.0023; in assay [8], -0.0216; in [9] it was -0.0457; with NB14 (Neuroblastoma) it was 0.0356; in the assay with NCI-H2461 (Mesothelioma), 0.0115; in the assay on NCI-H28 (Mesothelioma), 0.0075. Further, the Bliss excess in [10] was 0.0535; in [11], 0.0067; in assay [12] it was 0.0405; in assay [13], -0.0208; with SH-4 (Melanoma), -0.0411; in assay [14], -0.0007. Further, the Bliss excess in assay [15] stood at 0.0749; in assay [16] it was 0.0117.

In the case of `O=C(c1cc(Cc2n[nH]c(=O)c3ccccc23)ccc1F)N1CCN(C(=O)C2CC2)CC1` [Olaparib] + COc1nnc2ccc(N3CCC(c4ccc(OCCN5CCN(C)C(=O)[C@H]5C)cc4)CC3)nn12 [AZD5153] (first compound max 10 µM, 7x7, partner max 1 µM), the Bliss excess was -0.0923 in [1]; -0.0573 in [2]; -0.0427 in assay [3]; -0.0775 in [4]; -0.0334 in [5]; -0.0022 in assay [6]. For the same molecule, the Bliss excess was 0.0223 in [7]; -0.0338 in [8]; -0.0737 in assay [9]; -0.004 with NB14 (Neuroblastoma); -0.118 in the assay with NCI-H2461 (Mesothelioma); -0.0529 in the assay on NCI-H28 (Mesothelioma). Besides, the Bliss excess in assay [10] is -0.0341; in assay [11], -0.0144; in assay [12] it was -0.0893; in assay [13] it was -0.0487; in the assay on SH-4 (Melanoma), -0.11; in assay [14], -0.0296. The Bliss excess was -0.0338 in assay [15] and -0.0745 in [16].

These data come from the supplement of paper PMC11061612.
